Results published in paper PMC7665192, “A natriuretic peptide from Arabidopsis thaliana (AtPNP-A) can modulate catalase 2 activity” (Scientific Reports, 2020).
Positions of bridges follow the written chain, without caps; N, C: chain ends. No end group written: not given here.

Experiments:
cGMP = conditions: cited from earlier work
From the text: Similarly, identification of novel receptors targeted by an increasing number of peptidic plant hormones discovered in the last few decades[8],[9] is anticipated. One of those, the plant natriuretic peptides (PNPs), are a group of systemically mobile signals[10] that have a role in the maintenance of salt and water balance[11],[12]. An A. thaliana PNP, termed AtPNP-A (At2g18660; Q9ZV52), has been implicated in several physiological processes ranging from the regulation of stomatal aperture, osmoticum-dependent volume changes[13],[14] and modulation of developmental stage- and tissue-specif ... || A PNP_CAT interaction in plant responses to infecting pathogens is not surprising. CATs commonly function to down-regulate ROS during ABA-induced stomatal closure, and ABA-induced stomatal closure can be inhibited by removal of H2O2 via CAT2[73],[74]. […] Therefore, it is tempting to speculate that AtPNP-A modulates the effect of ABA on stomatal aperture through the interaction w ...

guard cell = conditions: cited from earlier work
From the text: A PNP_CAT interaction in plant responses to infecting pathogens is not surprising. CATs commonly function to down-regulate ROS during ABA-induced stomatal closure, and ABA-induced stomatal closure can be inhibited by removal of H2O2 via CAT2[73],[74]. […] Therefore, it is tempting to speculate that AtPNP-A modulates the effect of ABA on stomatal aperture through the interaction w ...

plant pathogen = conditions: exogenous H2O2; cited from earlier work
CAT2 transcript = conditions: exogenous application; cited from earlier work
From the text: (§1) It is also conceivable that modulation of CAT2 activity by AtPNP-A may not only have implications for plant biotic stress tolerance but may also result in changes in responses to abiotic stress. Activity of CAT2 is required for decomposition of photorespiration-derived H2O2 preventing redox perturbation under ambient growth conditions[59] while CAT2 deficiency causes a defective photorespiration phenotype including suppressed growth[58],[59] and accumulation of H2O2 in leaves. During senescence suppression of CAT2 function, mediated by G-BOX BINDING FACTOR1 (GBF1)[76], decreases CAT2 activ ...

[1] = system: AtPNP-A-deficient seedlings; conditions: cited from earlier work
From the text: as §1

[2] = biological target: T1, bovine liver CAT (C-40; Sigma) (bovine, UniProt P00432 1-527); assay: SPR; Biacore T100, 20 °C, flow 100 μL/min; bovine liver CAT amine-coupled to Series S CM5 chip, pAtPNP-A at 3.78 μM and consecutive twofold dilutions (11 injections); regeneration with glycine pH 2.0; kinetic analysis; conditions: both partners purified
T1 construct: catalase from bovine liver; also called bovine CAT; bovine liver catalase; source: bought: Sigma (C-40), bovine liver
T1 sequence (looked up): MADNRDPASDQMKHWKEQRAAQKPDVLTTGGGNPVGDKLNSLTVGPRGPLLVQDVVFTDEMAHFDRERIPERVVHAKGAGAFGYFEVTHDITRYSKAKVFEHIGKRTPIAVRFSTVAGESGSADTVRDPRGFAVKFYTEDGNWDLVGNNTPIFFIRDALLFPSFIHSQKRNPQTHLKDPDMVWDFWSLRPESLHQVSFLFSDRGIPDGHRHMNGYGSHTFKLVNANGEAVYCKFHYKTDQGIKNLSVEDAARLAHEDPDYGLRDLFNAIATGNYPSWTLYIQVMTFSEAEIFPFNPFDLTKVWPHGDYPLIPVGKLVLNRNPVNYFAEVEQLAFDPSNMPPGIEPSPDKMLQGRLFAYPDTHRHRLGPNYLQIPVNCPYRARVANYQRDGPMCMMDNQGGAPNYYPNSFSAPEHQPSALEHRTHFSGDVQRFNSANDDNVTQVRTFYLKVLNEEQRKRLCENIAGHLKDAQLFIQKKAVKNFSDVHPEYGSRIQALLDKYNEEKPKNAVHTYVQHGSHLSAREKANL

[3] = biological target: T2, recombinant catalase 2 (rCAT2), N-terminally 6xHis-tagged (A. thaliana, UniProt P25819 1-492); assay: SPR; Biacore T100, 20 °C; His-tagged rCAT2 immobilised on the NTA sensor chip (app. 4,500 RU), peptides injected at the same concentration; unmodified reference surface; conditions: both partners purified
T2 construct: catalase 2 (CAT2), A. thaliana; held on the NTA chip by its His tag; also called CAT2 recombinant protein; His-tagged rCAT2; source: E. coli BL21 (DE3) One Shot, purified (Ni-NTA beads, HisTrap HP column); not shown: 6xHis, N-terminal, kept
T2 sequence (looked up): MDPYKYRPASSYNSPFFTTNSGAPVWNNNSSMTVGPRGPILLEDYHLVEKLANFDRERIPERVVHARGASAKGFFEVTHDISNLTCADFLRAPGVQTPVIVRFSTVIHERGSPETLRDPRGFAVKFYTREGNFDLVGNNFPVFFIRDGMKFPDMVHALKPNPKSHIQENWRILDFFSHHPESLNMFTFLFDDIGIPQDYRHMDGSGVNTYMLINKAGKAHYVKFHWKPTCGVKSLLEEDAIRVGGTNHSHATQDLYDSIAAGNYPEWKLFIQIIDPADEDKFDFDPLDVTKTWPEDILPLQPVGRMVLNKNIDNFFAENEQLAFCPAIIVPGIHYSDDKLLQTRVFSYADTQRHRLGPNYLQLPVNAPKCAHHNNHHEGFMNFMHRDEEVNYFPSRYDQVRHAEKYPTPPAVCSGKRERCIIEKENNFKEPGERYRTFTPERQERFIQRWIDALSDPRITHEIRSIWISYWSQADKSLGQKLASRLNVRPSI

**Q.** With CC1=CC(=O)CC(C)(C)[C@@]1(O)/C=C/C(C)=C\C(=O)O [ABA, abscisic acid, reference compound] as the molecule, how does the “Effect of ABA on AtPNP-A-dependent cGMP increases” value (cGMP) read?
**A.** The value was “no effect”.

**Q.** And the “Effect of ABA on AtPNP-A-dependent guard cell volume increases” value (guard cell)?
**A.** The value was “no effect”.

**Q.** Which results are given for OO [H2O2, hydrogen peroxide]?
**A.** Plant pathogen resistance (plant pathogen): enhances plant pathogen resistance; CAT2 transcript (CAT2 transcript): Increases in CAT2 transcript

**Q.** Which results are given for C[n+]1ccc(-c2cc[n+](C)cc2)cc1 [methyl viologen]?
**A.** CAT2 transcript (CAT2 transcript): Increases in CAT2 transcript; Chlorosis in AtPNP-A-deficient seedlings [1]: extensive chlorosis

B1: pAtPNP-A, synthetic peptide with the active region of AtPNP-A, as used in SPR, ITC and the catalase activity assay (peptide, UniProt Q9ZV52 33-66, looked up)
peptide: YDPPYTRSACYGTQRETLVVGVKNNLWQNGRACG
modifications: disulfide 10-33 (inferred); not fully specified
notes: AtPNP-A (plant natriuretic peptide A), A. thaliana, active region, amino acids 33-66; peptides were made with or without a C-terminal biotin tag; also called biologically active fragment of AtPNP-A; source: synthetic peptide (GenScript, purity > 95%)
**Q.** What does the source list for B1?
**A.** Kd [2]: 86 nM; binding result [3]: binds
